System: MC38 tumor
Experiment: Cytokine detection assay (V-Plex Proinflammatory Panel 1 Mouse Kit) in MC38 tumor bearing animals
Format: in vivo, mice
Details: MC38 tumor model, plasma from tumor bearing animals 2 hours post last dose
Description: Reagents: GH21001 (TNO-155), GH21005 (compound of Formula Ia) were supplied by HUYA Biosciences, USA, RMC-4550 was purchased from MCE, China. Osimertinib was purchased from Selleck, China. Cisplatin was purchased from Qilu Pharma, China. Anti-PD-1 (RMP1-14) and Rat IgG2a antibodies were purchased from BioXCell (China).
All cell lines were maintained in culture and cells in exponential growth phase were harvested and quantitated by cell counter before tumor inoculation. MC38 tumor cells (1×10^6) in 0.1 ml of PBS were inoculated into the right front flank of female C57/Bl animals, mean tumor size approximately 112 mm^3 at the start of treatment.
The date of randomization and treatment initiation was denoted as day 0. Tumor volumes were measured twice per week in two dimensions using a caliper, and the volume will be expressed in mm3 using the formula: V=(L×W×W)/2, where V is tumor volume, L is tumor length (the longest tumor dimension) and W is tumor width (the longest tumor dimension perpendicular to L). Dosing volume was 10 mL/kg/day. […]
Cytokine detection assay: V-Plex Proinflammatory Panel 1 Mouse Kit (Mesoscale Discovery) was used to determine cytokine levels in plasma isolated from tumor bearing animals 2 hours post last dose. Plasma from tumor bearing animals was analyzed as described by the manufacture's guidelines. […]

Question: With `C[C@@H]1OCC2(CCN(c3cnc(Sc4cccc(NC(=O)c5c(O)nc6n(c5=O)CCCC6)c4Cl)cn3)CC2)[C@@H]1N` [compound of Formula (Ia), N-(3-((5-((3S,4S)-4-amino-3-methyl-2-oxa-8-azaspiro[4.5]decan-8-yl)pyrazin-2-yl)thio)-2-chlorophenyl)-2-hydroxy-4-oxo-6,7,8,9-tetrahydro-4H-pyrido[1,2-a]pyrimidine-3-carboxamide] as the compound, how does the KC/GRO level (FIG. 2A) read?
Answer: slight decreases

Question: What about the TNF-alpha level (FIG. 2B) of the same compound?
Answer: slight decreases
